Data as given in EP4467154A1, “MEDICINE FOR TREATING OR PREVENTING CANCER” (CHUGAI SEIYAKU KABUSHIKI KAISHA, priority 2022, dated 2023).
Read-outs that look alike come from different tables or passages of the source. Blank lines part the entries; values can stand above or below the compound they belong to. Bridge positions count the residues as written; N and C are the ends. Square brackets hold non-standard residues; d marks the D form. Peptide text beside a SMILES is read from it. hPhe(3,5-F2-4-CF3) = N[C@@H](CCc1cc(F)c(C(F)(F)F)c(F)c1)C(=O)O; NEtPhe(4-Me) = CCN[C@@H](Cc1ccc(C)cc1)C(=O)O; NMeGly(cPent) = CN[C@H](C(=O)O)C1CCCC1; NMeD = CN[C@@H](CC(=O)O)C(=O)O; NMeL = CN[C@@H](CC(C)C)C(=O)O; NMeA = CN[C@@H](C)C(=O)O; Ac5c = NC1(C(=O)O)CCCC1; Aze = O=C(O)[C@@H]1CCN1; Sar = CNCC(=O)O

What was measured:
[1] = system: lung cancer line NCI-H1373 (KRAS-G12C); assay: In vivo antitumor activity, NCI-H1373 xenograft model (Example 11); set-up: species or system Nude mice; settings: compound 1 5 mg/kg orally once a day, TNO155 5 mg/kg orally twice a day, 35 days, Figure 19
Text: A xenograft model to which lung cancer line NCI-H1373 (KRAS-G12C) was transplanted was used to evaluate in vivo antitumor activity due to combined use of compound 1 and TNO155. Nude mice were subcutaneously transplanted with 5 × 10^6 cells per mouse, and when the tumor volume reached 200 to 300 mm^3, the nude mice were randomized and administration of compound 1 and/or the compound for combined use was started (n = 8). Compound 1 was orally administered once a day and TNO155 was orally administered twice a day for an administration period of 35 days. The doses of the agents were 5 mg/kg for compound 1 and 5 mg/kg for TNO155. Compound 1 was dissolved in 10% DMSO/5% Cremphor EL/85% Distilled water and TNO155 was dissolved in 0.5% Tween 80/0.5% methylcellulose/99% distilled water, and administered. From the tumor volume data on the last measurement day, the tumor growth inhibition rate (Tumor Growth Inhibition %: TGI%) was calculated using the following formulas. […] Tumor growth inhibition rate (TGI%) = (1−TV/CV) × 100 [formula] Tumor volume (mm^3) = 1/2 × major axis (mm) × minor axis (mm) × minor axis (mm) [formula] [formula] • TV: Mean of the amount of change in tumor volume in the compound 1 monotherapy group, the TNO155 monotherapy group, or the combined use group • CV: Mean of the amount of change in tumor volume in the vehicle group

NCI-H1373 (KRAS-G12C) = assay: In vivo antitumor activity, NCI-H1373 xenograft model (Example 12); set-up: species or system Nude mice; settings: compound 1 3 mg/kg or 5 mg/kg, compound 2 0.25 mg/kg, orally once a day, 14 days, Figure 21
Experimental: (§1) A xenograft model to which lung cancer line NCI-H441 (KRAS-G12C) or NCI-H1373 (KRAS-G12C) was transplanted was used to evaluate in vivo antitumor activity due to combined use of compound 1 and compound 2. Nude mice were subcutaneously transplanted with 5 × 10^6 cells per mouse, and when the tumor volume reached 200 to 300 mm^3, randomization was performed and administration of compound 1 and/or the compound for combined use was started (n = 5). Compound 1 and compound 2 were orally administered once a day for an administration period of 14 days. The doses of the agents were 3 mg/kg or 5 mg/kg for compound 1 and 0.25 mg/kg for compound 2. Compound 1 was dissolved in 10% DMSO/5% Cremphor EL/85% Distilled water and compound 2 was dissolved in 10% DMSO/10% Cremphor EL/15% PEG400/15% HPBCD/50% distilled water, and administered. From the tumor volume data on the last measurement day, the tumor growth inhibition rate (Tumor Growth Inhibition %: TGI%) was calculated using the following formulas. […] Tumor growth inhibition rate (TGI%) = (1−TV/CV) × 100 [formula] Tumor volume (mm^3) = 1/2 × major axis (mm) × minor axis (mm) × minor axis (mm) [formula] [formula] • TV: Mean of the amount of change in tumor volume in the compound 1 monotherapy group, the compound 2 monotherapy group, or the combined use group • CV: Mean of the amount of change in tumor volume in the vehicle group

[2] = system: lung cancer line NCI-H441 (KRAS-G12C); assay: In vivo antitumor activity, NCI-H441 xenograft model (Example 12); set-up: species or system Nude mice; settings: compound 1 3 mg/kg or 5 mg/kg, compound 2 0.25 mg/kg, orally once a day, 14 days, Figure 20
Experimental: as §1

NCI-H358 [3] = assay: Cell growth inhibitory activity, ATP (CellTiter-Glo 2.0), isobologram (Example 2), NCI-H358; assay type: cell-based, Human; settings: 144 hours
Experimental: (§2) Human cancer cell lines were seeded on a 384-well round bottom ultra-low attachment plate at a concentration of 750 cells per well and cultured in a 5% carbon gas incubator at 37°C. After 24 hours, CellTiter-Glo 2.0 (Promega Corporation) was added to part of the wells (3 wells), and the amount of ATP (V0) was determined using Envision plate readers (PerkinElmer Co., Ltd.). V0 was taken as the amount of ATP at time 0. DMSO alone or compound 1 and/or the compound for combined use each were added to another three wells. Compound 1 and the compound for combined use were used by serially diluting in 8 steps at a common ratio of 3 with 300 nM and 10 or 3000 nM taken as their respective highest concentrations. […] After culturing for 144 hours after addition of DMSO alone or compound 1 and/or the compound for combined use, the amount of ATP (T and V) was determined for the cells to which DMSO alone was added (DMSO-treated group) or the cells to which compound 1 and/or the compound for combined use was added (compound 1 and/or compound for combined use-treated group). […] The growth inhibition rate (Growth Inhibition %: GI%) was calculated using the following formulas. […] (1−(T−V0)/V0) × 100 [formula] (when T < V0) (1−(T−V0)/(V−V0)) × 100 [formula] […]

NCI-H441 = assay: Cell growth inhibitory activity, ATP (CellTiter-Glo 2.0), isobologram (Example 2), NCI-H441; assay type: cell-based, Human; settings: set GI% 100%, 144 hours, test with RMC-4550
Experimental: as §2

NCI-H358 [4] = settings: read-out: set GI concentration (concentration as a single drug giving GI 50), set GI% 50%, 144 hours, test with trametinib
Experimental: as §2

Compound: C[C@@H]1OCC2(CCN(c3cnc(Sc4ccnc(N)c4Cl)c(N)n3)CC2)[C@@H]1N [TNO155, (3S,4S)-8-(6-amino-5-((2-amino-3-chloropyridine-4-yl)thio)pyrazine-2-yl)-3-methyl-2-oxa-8-azaspiro[4.5]decane-4-amine]
tumor volume, compared with vehicle group [1]: increase in tumor volume suppressed

Compound: CNS(=O)(=O)Nc1nccc(Cc2cc(C(N)=O)c(Nc3ccc(C4CC4)cc3F)c(F)c2F)c1F [compound 2, 2-(4-cyclopropyl-2-fluoro-anilino)-3,4-difluoro-5-[[3-fluoro-2-(methylsulfamoylamino)-4-pyridyl]methyl]benzamide]
tumor volume, compared with vehicle group (NCI-H1373 (KRAS-G12C)): increase in tumor volume suppressed | tumor volume, compared with vehicle group [2]: increase in tumor volume suppressed

Compound: Cc1nc(N2CCC3(CC2)CO[C@@H](C)[C@H]3N)c(CO)nc1-c1cccc(Cl)c1Cl [RMC-4550, 3-[(3S,4S)-4-amino-3-methyl-2-oxa-8-azaspiro[4.5]deca-8-yl]-6-(2,3-dichlorophenyl)-5-methyl-2-pyrazinemethanol]
set GI concentration (concentration as a single drug giving GI 155) (NCI-H358 [3]; set GI% 155%, test with RMC-4550): 0.55 µM | set GI concentration (concentration as a single drug giving GI 100) (NCI-H441): 0.35 µM

Compound: CC[C@H](C)[C@@H]1NC(=O)[C@H](CC(C)C)N(C)C(=O)C[C@@H](C(=O)N(C)C)N(C)C(=O)[C@H](C2CCCC2)N(C)C(=O)C2(CCCC2)NC(=O)[C@@H]2CCCN2C(=O)[C@H](CCc2cc(F)c(C(F)(F)F)c(F)c2)NC(=O)CN(C)C(=O)[C@H](Cc2ccc(C)cc2)N(CC)C(=O)[C@@H]2CCN2C(=O)[C@H](C)N(C)C1=O [compound 1, (5S,8S,11S,15S,18S,23aS,29S,35S,37aS)-8-((S)-sec-butyl)-18-cyclopentyl-29-(3,5-difluoro-4-(trifluoromethyl)phenethyl)-36-ethyl-11-isobutyl-N,N,5,6,12,16,19,33-octamethyl-35-(4-methylbenzyl)-4,7,10,13,17,20,23,28,31,34,37-undecaoxotetratriacontahydro-2H,4H-spiro[azeto[2,1-u]pyrrolo[2,1-i][1,4,7,10,13,16,19,22,25,28,31]undecaazacyclotetratriacontyne-21,1'-cyclopentane]-15-carboxamide] ([NMeL]I[NMeA][Aze][NEtPhe(4-Me)][Sar][hPhe(3,5-F2-4-CF3)]P[Ac5c][NMeGly(cPent)][NMeD]-NMe2; lactam N-11)
GI50 (NCI-H358 [4]): 4.6 nM

GI50 (NCI-H358 [3]; Homo sapiens, set GI% 50%, single drug, test with trametinib, read-out: set GI concentration (concentration as a single drug giving GI 50)): 0.35 nM
Compound: CC(=O)Nc1cccc(-n2c(=O)n(C3CC3)c(=O)c3c(Nc4ccc(I)cc4F)n(C)c(=O)c(C)c32)c1 [trametinib, N-[3-[3-cyclopropyl-5-(2-fluoro-4-iodo-phenylamino)-6,8-dimethyl-2,4,7-trioxo-3,4,6,7-tetrahydro-2H-pyrido[4,3-d]pyrimidine-1-yl]phenyl]acetamide]
